Experimental data: US20220119767A1, “NATURAL KILLER CELL INDUCED CELLULAR VESICLES FOR CANCER THERAPY” (The Regents of the University of California, priority 2019, published 2022)

Test system: K562 leukemia cancer cells
Method: DOX-loaded ICVs were tested for cytotoxicity to K562 cancer cells compared to free DOX, as assessed by using an MTT assay (see FIG. 5).

Q: Which “order of K562 cytotoxicity” value does the source give for `COc1cccc2c1C(=O)c1c(O)c3c(c(O)c1C2=O)C[C@@](O)(C(=O)CO)C[C@@H]3O[C@H]1C[C@H](N)[C@H](O)[C@H](C)O1` [DOX, doxorubicin] here?
A: Its value is “DOX>NK92 ICVs-DOX>K562 ICVs-DOX”.
